In patent US8921362B2, “6,7-dialkoxy quinazoline derivatives and methods of treating drug resistant and other tumors” (Natco Pharma Limited, priority 2008, dated 2014):

Tests used:
Test in all cases: KinomeScan
Assay type in all cases: binding
Details in all cases: read-out: % Ctrl @ 10000 nM
[1] = target: T1, ACVR1 (Homo sapiens, UniProt Q04771)
T1 construct: host or cells: E. coli (BL21-derived), T7 phage lysate
Method in brief: (§1)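 qPCR titer; phage-tagged kinase vs bead ligand; compound diluted from 40× DMSO stock; 2.5% DMSO control.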

[2] = target: T2, ADCK3 (Homo sapiens, UniProt Q8NI60)
T2 construct: host or cells: E. coli (BL21-derived), T7 phage lysate
Method in brief: as §1

[3] = target: T3, AKT3 (Homo sapiens, UniProt Q9Y243)
T3 construct: host or cells: E. coli (BL21-derived), T7 phage lysate
Method in brief: as §1

[4] = target: T4, AURKA (Homo sapiens, UniProt O14965)
T4 construct: host or cells: E. coli host derived from BL21
Method in brief: as §1

[5] = target: T5, CAMK4 (Homo sapiens, UniProt Q16566)
T5 construct: host or cells: T7 phage in E. coli host derived from BL21
Method in brief: as §1

[6] = target: T6, CDK5 (Homo sapiens, UniProt Q00535)
T6 construct: host or cells: T7 phage in E. coli host derived from BL21
Method in brief: as §1

[7] = target: T7, CDK9 (Homo sapiens, UniProt P50750)
T7 construct: host or cells: T7 phage in E. coli host derived from BL21
Method in brief: as §1

[8] = target: T8, CIT (Homo sapiens, UniProt O14578)
T8 construct: host or cells: T7 phage in E. coli host derived from BL21
Method in brief: as §1

[9] = target: T9, CSNK1G1 (Homo sapiens, UniProt Q9HCP0)
T9 construct: purchased Ambit Biosciences Corp (KinomeScan); host or cells: T7 phage in E. coli host derived from BL21
Method in brief: as §1

[10] = target: T10, EGFR(L747-S752del, P753S) (Homo sapiens, UniProt P00533, DEL747-752/P753S)
T10 construct: purchased Ambit Biosciences Corp (KinomeScan); host or cells: T7 phage in E. coli host derived from BL21
Method in brief: as §1

[11] = target: T11, EGFR(L858R) (Homo sapiens, UniProt P00533, L858R)
T11 construct: purchased Ambit Biosciences Corp; host or cells: T7 phage in E. coli host derived from BL21
Method in brief: as §1

[12] = target: T12, EPHB4 (Homo sapiens, UniProt P54760)
T12 construct: purchased Ambit Biosciences Corp; host or cells: T7 phage in E. coli host derived from BL21
Method in brief: as §1

[13] = target: T13, GAK (Homo sapiens, UniProt O14976)
T13 construct: host or cells: T7 phage in E. coli host derived from BL21
Method in brief: as §1

[14] = target: T14, IGF1R (Homo sapiens, UniProt P08069)
T14 construct: host or cells: T7 phage grown in E. coli host derived from BL21
Method in brief: as §1

[15] = target: T15, JNK1 (Homo sapiens, UniProt P45983)
T15 construct: host or cells: T7 phage grown in E. coli host derived from BL21
Method in brief: as §1

[16] = target: T16, KIT (Homo sapiens, UniProt P10721)
T16 construct: host or cells: T7 phage grown in E. coli host derived from BL21
Method in brief: as §1

[17] = target: T17, KIT(D816V) (Homo sapiens, UniProt P10721, D816V)
T17 construct: host or cells: T7 phage grown in E. coli host derived from BL21
Method in brief: as §1

[18] = target: T18, KIT(V559D, T670I) (Homo sapiens, UniProt P10721, T670I/V559D)
T18 construct: host or cells: T7 phage grown in E. coli host derived from BL21
Method in brief: as §1

[19] = target: T19, MAP4K3 (Homo sapiens, UniProt Q8IVH8)
T19 construct: host or cells: E. coli host derived from the BL21 strain, infected with T7 phage
Method in brief: as §1

[20] = target: T20, MEK2 (Homo sapiens, UniProt P36507)
T20 construct: host or cells: E. coli host derived from the BL21 strain, infected with T7 phage
Method in brief: as §1

[21] = target: T21, MEK4 (Homo sapiens, UniProt P45985)
T21 construct: host or cells: E. coli host derived from the BL21 strain, infected with T7 phage
Method in brief: as §1

[22] = target: T22, MLK1 (Homo sapiens, UniProt P80192)
T22 construct: host or cells: T7 phage grown in E. coli host derived from BL21
Method in brief: as §1

[23] = target: T23, MRCKB (Homo sapiens, UniProt Q9Y5S2)
T23 construct: host or cells: T7 phage grown in E. coli host derived from BL21
Method in brief: as §1

[24] = target: T24, NEK6 (Homo sapiens, UniProt Q9HC98)
T24 construct: host or cells: T7 phage grown in E. coli host derived from BL21
Method in brief: as §1

[25] = target: T25, PAK4 (Homo sapiens, UniProt O96013)
T25 construct: host or cells: E. coli host derived from BL21, infected with T7 phage
Method in brief: as §1

[26] = target: T26, PCTK1 (Homo sapiens, UniProt Q00536)
T26 construct: host or cells: E. coli host derived from BL21, infected with T7 phage
Method in brief: as §1

[27] = target: T27, PKAC-beta (Homo sapiens, UniProt P22694)
T27 construct: host or cells: T7 phage in E. coli host derived from BL21
Method in brief: as §1

[28] = target: T28, RET(M918T) (Homo sapiens, UniProt P07949, M918T)
T28 construct: host or cells: E. coli host derived from BL21, T7 phage display
Method in brief: as §1

[29] = target: T29, RET(V804L) (Homo sapiens, UniProt P07949, V804L)
T29 construct: host or cells: E. coli host derived from BL21, T7 phage display
Method in brief: as §1

[30] = target: T30, TAOK1 (Homo sapiens, UniProt Q7L7X3)
T30 construct: host or cells: T7 phage grown in E. coli (BL21-derived)
Method in brief: as §1

[31] = target: T31, TNNI3K (Homo sapiens, UniProt Q59H18)
T31 construct: host or cells: E. coli host derived from BL21, T7 phage
Method in brief: as §1

[32] = target: T32, TYRO3 (Homo sapiens, UniProt Q06418)
T32 construct: host or cells: E. coli host derived from BL21, T7 phage
Method in brief: as §1

[33] = target: T33, YES (Homo sapiens, UniProt P07947)
T33 construct: host or cells: E. coli host derived from BL21, T7 phage
Method in brief: as §1

T7 sequence (P50750 whole entry): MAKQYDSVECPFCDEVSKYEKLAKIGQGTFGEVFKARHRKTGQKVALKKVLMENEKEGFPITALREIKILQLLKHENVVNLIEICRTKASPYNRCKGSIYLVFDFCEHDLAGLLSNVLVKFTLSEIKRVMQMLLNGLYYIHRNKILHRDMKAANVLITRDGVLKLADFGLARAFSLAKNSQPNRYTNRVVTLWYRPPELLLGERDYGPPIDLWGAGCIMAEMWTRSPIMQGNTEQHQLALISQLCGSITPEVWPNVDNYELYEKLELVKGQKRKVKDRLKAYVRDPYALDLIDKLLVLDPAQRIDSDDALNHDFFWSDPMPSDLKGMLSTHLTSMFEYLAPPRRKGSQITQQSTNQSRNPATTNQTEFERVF
T8 sequence (O14578 whole entry): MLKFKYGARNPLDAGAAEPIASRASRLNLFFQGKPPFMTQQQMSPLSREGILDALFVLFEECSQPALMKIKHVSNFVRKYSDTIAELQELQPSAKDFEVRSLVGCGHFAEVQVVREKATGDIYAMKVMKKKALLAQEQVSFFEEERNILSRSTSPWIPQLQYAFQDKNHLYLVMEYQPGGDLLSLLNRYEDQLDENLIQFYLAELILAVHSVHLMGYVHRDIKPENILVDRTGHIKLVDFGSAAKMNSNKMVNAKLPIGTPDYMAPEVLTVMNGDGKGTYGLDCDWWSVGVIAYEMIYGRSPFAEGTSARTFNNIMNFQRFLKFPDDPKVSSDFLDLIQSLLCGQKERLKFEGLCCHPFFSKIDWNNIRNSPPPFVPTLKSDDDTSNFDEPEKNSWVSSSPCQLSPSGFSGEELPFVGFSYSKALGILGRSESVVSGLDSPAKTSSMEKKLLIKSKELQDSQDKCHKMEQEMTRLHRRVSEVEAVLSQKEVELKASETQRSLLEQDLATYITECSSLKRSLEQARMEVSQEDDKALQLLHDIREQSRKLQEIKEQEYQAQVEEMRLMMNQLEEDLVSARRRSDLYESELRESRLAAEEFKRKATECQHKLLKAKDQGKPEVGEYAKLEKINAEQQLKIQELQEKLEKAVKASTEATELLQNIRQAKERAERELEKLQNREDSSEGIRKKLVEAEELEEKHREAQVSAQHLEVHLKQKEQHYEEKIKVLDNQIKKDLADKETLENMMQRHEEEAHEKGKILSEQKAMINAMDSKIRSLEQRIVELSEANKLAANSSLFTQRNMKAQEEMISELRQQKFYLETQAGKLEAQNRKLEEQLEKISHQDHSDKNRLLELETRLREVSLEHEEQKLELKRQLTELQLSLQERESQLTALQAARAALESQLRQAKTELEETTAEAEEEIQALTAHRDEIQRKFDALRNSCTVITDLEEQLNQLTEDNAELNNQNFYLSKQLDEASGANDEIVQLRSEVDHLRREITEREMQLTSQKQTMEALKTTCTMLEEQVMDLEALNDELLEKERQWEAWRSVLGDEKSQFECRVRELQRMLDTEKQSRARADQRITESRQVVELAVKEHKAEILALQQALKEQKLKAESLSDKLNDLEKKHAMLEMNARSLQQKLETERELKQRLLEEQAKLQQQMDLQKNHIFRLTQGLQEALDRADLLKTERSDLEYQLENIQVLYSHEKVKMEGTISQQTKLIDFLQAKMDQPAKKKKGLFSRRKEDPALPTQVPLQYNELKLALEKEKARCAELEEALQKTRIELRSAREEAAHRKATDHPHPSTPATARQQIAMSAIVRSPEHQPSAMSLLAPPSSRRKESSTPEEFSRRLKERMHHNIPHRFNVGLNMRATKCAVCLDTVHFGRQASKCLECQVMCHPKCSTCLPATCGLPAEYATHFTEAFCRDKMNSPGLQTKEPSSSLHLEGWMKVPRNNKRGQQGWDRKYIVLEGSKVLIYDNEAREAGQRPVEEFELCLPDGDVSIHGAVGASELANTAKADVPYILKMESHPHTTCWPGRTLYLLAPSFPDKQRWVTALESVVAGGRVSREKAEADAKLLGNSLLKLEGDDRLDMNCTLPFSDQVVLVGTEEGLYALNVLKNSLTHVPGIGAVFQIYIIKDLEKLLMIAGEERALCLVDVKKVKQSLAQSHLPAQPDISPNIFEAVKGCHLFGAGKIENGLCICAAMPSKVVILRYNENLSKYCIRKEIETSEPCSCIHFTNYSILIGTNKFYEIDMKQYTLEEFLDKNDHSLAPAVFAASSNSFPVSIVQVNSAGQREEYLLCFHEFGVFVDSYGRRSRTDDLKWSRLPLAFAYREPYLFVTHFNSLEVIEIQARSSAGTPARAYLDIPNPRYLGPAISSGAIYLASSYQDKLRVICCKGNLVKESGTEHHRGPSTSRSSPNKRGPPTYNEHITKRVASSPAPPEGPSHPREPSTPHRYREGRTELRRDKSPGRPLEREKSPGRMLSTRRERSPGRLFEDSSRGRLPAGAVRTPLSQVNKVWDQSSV
T4 sequence (O14965 whole entry): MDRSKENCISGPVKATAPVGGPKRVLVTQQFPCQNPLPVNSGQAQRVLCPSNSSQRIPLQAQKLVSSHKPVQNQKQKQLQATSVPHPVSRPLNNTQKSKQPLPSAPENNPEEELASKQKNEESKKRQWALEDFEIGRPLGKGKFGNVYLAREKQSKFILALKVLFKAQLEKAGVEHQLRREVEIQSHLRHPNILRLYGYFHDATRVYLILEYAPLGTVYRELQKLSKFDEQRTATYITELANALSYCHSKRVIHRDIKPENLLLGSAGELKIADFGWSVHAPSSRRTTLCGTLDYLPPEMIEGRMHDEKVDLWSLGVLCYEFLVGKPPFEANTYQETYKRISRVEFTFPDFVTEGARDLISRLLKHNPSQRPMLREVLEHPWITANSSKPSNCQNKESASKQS
T12 sequence (P54760 16-987): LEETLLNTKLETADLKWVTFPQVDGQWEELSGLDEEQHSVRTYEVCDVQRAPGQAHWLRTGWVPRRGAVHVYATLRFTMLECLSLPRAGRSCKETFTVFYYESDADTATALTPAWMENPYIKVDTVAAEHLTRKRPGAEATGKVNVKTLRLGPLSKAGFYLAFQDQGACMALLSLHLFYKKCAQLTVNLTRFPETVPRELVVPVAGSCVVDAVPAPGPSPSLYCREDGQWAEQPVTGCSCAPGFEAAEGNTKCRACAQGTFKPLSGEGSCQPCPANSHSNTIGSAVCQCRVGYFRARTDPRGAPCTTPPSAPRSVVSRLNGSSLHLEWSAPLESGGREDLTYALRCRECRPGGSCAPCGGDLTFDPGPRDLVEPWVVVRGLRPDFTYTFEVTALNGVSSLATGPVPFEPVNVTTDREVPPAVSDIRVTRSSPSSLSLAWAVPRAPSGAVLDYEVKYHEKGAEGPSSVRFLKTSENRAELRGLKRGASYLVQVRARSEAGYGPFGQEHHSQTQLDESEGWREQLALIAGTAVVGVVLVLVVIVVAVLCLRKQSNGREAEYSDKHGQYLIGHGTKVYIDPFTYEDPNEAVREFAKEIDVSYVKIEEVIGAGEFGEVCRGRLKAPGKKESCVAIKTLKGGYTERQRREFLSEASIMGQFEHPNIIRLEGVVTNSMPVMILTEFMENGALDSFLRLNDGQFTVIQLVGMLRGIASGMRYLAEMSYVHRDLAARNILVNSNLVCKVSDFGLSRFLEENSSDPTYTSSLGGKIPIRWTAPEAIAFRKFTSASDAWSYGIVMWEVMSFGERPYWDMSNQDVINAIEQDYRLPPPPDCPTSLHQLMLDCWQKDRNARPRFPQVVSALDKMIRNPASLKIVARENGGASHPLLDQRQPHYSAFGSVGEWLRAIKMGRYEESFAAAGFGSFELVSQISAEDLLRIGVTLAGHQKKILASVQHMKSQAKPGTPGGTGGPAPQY
T2 sequence (Q8NI60 163-647): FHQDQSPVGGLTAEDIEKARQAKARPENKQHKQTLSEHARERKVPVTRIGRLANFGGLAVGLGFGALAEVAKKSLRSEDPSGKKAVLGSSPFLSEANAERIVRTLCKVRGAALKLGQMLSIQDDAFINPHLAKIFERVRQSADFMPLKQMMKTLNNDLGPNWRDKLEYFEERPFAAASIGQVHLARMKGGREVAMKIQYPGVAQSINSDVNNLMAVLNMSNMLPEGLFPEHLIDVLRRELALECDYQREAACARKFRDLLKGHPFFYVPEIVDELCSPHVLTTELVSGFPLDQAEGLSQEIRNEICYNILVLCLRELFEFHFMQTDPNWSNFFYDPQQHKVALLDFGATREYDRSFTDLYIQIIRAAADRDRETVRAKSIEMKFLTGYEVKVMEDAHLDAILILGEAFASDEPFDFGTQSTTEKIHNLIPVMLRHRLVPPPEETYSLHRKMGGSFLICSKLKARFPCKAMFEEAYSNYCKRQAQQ
T6 sequence (Q00535 whole entry): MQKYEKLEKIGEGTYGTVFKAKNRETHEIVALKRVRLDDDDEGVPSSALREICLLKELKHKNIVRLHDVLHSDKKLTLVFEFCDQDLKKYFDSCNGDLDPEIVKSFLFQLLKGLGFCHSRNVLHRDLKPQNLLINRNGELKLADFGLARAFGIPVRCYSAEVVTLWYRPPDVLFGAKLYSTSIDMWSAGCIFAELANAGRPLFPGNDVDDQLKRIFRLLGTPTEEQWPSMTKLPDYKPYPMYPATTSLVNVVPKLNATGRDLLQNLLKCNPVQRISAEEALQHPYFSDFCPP
T5 sequence (Q16566 whole entry): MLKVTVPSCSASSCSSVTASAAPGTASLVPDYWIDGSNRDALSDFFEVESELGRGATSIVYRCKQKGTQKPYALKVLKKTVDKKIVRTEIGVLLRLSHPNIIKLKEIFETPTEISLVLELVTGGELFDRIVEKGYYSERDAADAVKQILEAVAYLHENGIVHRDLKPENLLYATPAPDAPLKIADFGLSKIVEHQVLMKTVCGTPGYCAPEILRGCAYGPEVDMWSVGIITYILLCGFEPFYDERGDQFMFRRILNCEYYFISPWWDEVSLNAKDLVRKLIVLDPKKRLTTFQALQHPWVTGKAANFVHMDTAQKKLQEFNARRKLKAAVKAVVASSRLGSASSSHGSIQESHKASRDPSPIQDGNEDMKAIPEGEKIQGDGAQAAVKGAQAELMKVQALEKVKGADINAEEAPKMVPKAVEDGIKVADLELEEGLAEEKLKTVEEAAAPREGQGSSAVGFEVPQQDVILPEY

Compound: C#Cc1cccc(Nc2ncnc3cc(OC)c(OCCCN4CCOCC4)cc23)c1 [NRC-2694, N-(3-ethynylphenyl)-7-methoxy-6-[3-(4-morpholinyl)propoxy]-4-quinazolinamine]
- remaining binding at 10 µM [1]: 61%
- remaining binding at 10 µM [2]: 14%
- remaining binding at 10 µM [3]: 66%
- remaining binding at 10 µM [4]: 100%
- remaining binding at 10 µM [5]: 92%
- remaining binding at 10 µM [6]: 100%
- remaining binding at 10 µM [7]: 86%
- remaining binding at 10 µM [8]: 5%
- remaining binding at 10 µM [9]: 55%
- remaining binding at 10 µM [10]: 0.1%
- remaining binding at 10 µM [11]: 0%
- remaining binding at 10 µM [12]: 39%
- remaining binding at 10 µM [13]: 0.95%
- remaining binding at 10 µM [14]: 74%
- remaining binding at 10 µM [15]: 99%
- remaining binding at 10 µM [16]: 26%
- remaining binding at 10 µM [17]: 17%
- remaining binding at 10 µM [18]: 28%
- remaining binding at 10 µM [19]: 52%
- remaining binding at 10 µM [20]: 44%
- remaining binding at 10 µM [21]: 92%
- remaining binding at 10 µM [22]: 100%
- remaining binding at 10 µM [23]: 71%
- remaining binding at 10 µM [24]: 94%
- remaining binding at 10 µM [25]: 80%
- remaining binding at 10 µM [26]: 100%
- remaining binding at 10 µM [27]: 88%
- remaining binding at 10 µM [28]: 37%
- remaining binding at 10 µM [29]: 81%
- remaining binding at 10 µM [30]: 54%
- remaining binding at 10 µM [31]: 7.6%
- remaining binding at 10 µM [32]: 42%
- remaining binding at 10 µM [33]: 41%
